Reference: patent publication US12415926B2, “Small tunable fluorophores for the detection and imaging of biomolecules” (The University Court of the University of Edinburgh, priority 2019, dated 2025)

Columns and labels:
[1] = Optical properties of SCOTfluors (absorbance, emission, extinction coefficient, quantum yield, solvatochromism); type: physicochemical
Method: All compounds were dissolved in different organic solvents, including toluene, chloroform, tetrahydrofuran, ethanol, DMSO and water (final concentrations: 10-50 μM). Fluorescence spectra were acquired on a spectrophotometer upon excitation at their maxima absorbance wavelengths.
The optical properties of SCOTfluor-80, 79, 78, 76 and 81 were compared with the properties of the original NBD.

HeLa cells = assay: Cytotoxicity assay in HeLa cells; conditions: 100 μM and 75 μM (1% DMSO), 4 h at 37° C.
Method: Cell viabilities were normalized to incubation in cell culture media under the same experimental conditions. A solution of 40% DMSO in cell culture media was used as a known cytotoxic positive control. Values represented as means±s.e.m. (n=3).

GLUT4 = target: T1, GLUT4 (Homo sapiens, UniProt P14672); assay: Uptake in GLUT4-EGFP transfected HeLa cells (fluorescence microscopy); type: cell-based; conditions: 100 μM
T1 construct: PYP (photoactive yellow protein tag); HA; expressed in transfected cells; host or cells: HeLa
T1 sequence (P14672 1-509): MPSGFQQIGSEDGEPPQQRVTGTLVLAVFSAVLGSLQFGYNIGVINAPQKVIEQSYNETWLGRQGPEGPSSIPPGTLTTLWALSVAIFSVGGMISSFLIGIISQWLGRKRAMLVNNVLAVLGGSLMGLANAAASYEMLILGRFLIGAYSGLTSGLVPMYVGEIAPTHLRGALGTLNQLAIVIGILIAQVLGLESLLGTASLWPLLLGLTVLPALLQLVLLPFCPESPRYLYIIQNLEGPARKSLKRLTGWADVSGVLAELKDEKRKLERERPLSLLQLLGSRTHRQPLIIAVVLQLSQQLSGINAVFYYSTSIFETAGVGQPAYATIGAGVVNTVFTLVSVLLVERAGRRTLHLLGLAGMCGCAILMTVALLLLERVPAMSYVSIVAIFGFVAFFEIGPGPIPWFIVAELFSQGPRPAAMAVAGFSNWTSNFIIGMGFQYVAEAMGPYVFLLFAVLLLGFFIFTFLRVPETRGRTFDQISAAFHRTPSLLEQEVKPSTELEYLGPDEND
Method: (§1) A-F) Green (GLUT4-EGFP), red (SCOTfluor-89, 100 μM) and merged (Hoechst 33342) images of HeLa cells without additional glucose (A-C) and in media containing 5 mM D-glucose ([…]). White arrows identify co-localization of GLUT4-EGFP and SCOTfluor-89. Scale bar: 10 μm. G) Fluorescence emission spectra of BFP (blue), GFP (green) and SCOTfluor-89 (red). H) Insulin-dependent (100 nM, 1 h) uptake of SCOTfluor-89 (red, 100 μM) in GLUT4-EGFP HeLa cells. I) Chemical structures of compounds SCOTfluor-54 and SCOTfluor-89. J) In vivo images of the head in zebrafish embryos (28 hpf) after injection of SCOTfluor-54 or SCOTfluor-89 (both 50 pmol) to the yolk sac (blue arrowheads). Fluorescence images were taken of wildtype zebrafish or zebrafish that had been injected at one cell stage with 4.2 ng anti-sense glut2 morpholino. Yellow arrows point at midbrain and hindbrain regions within the zebrafish embryo heads. Scale bar: 100 μm.
(§2) A549 and HeLa cells were obtained from LGC Standards and cultured in Dulbecco's modified Eagle's medium (DMEM) supplemented with 10% FBS, 100 U mL^−1 penicillin and 0.1 mg mL^−1 streptomycin. For transfection experiments, HeLa cells were transfected with pcDNA-PYP-GLUT4-HA-EGFP. Amplification of plasmid-DNA was performed by transformation of competent E. coli DH5a, followed by isolation of pcDNA-PYP-GLUT4-HA-EGFP using GeneJet Plasmid Miniprep kit (ThermoFisher) according to the manufacturer's instructions. Prior to transfection, pcDNA concentration was determined using NanoDrop. Transfection of HeLa cells was performed according to manufacturer's protocol with 1 μg pcDNA-PYP-GLUT4-HA-EGFP using Lipofectamine 3000. Non-transfected as well as transfected cells were maintained at 37° C. and 5% CO2 throughout the imaging experiments.
Confocal fluorescence microscopy was performed on a confocal Leica SP5 or a spinning disk microscope with excitation at 488 nm (ER Tracker, LysoTracker, EGFP & SCOTfluor-89), 561 nm (SCOTfluor-101) and 405 nm (Hoechst 33342). […]

GLUT2 = assay: Zebrafish in vivo imaging of glucose uptake; conditions: 28 hpf, 50 pmol into yolk sac
Method: as §1
Anti-sense glut2 morpholino (5′-ATGACCTGCAGAC AACAAGGACACC-3′)^1 was reconstituted to 1 mM in nuclease-free H2O and injected at 4.2 ng/embryo into the one-cell stage. Embryos were maintained at 28.5° C., according to standard protocols. Wild-type controls and glut2 morphants were injected into the yolk sac at 28 hours post fertilization (hpf) with compound SCOTfluor-89 (50 pmol) and 1 mg mL^−1 10,000 MW Dextran Cascade Blue® (ThermoFisher), then embedded in 1% low-melting point agarose for live imaging. Live imaging was performed 30 min post-injection on an inverted Leica SP8 confocal microscope using a HC PL APO CS2 10×/0.40 dry lens. Dextran was excited at 405 nm laser and detected at 415-480 nm, while compound SCOTfluor-89 was excited at 488 nm and detected at 498-600 nm.
It was also examined whether SCOTfluors could be used to image in vivo tissues with high metabolic activity. Fluorescent deoxyglucose tracers can monitor glucose uptake in metabo-lically-active cells and tissues, although few have been reported for in vivo use. Herein synthesized compound SCOTfluor-89 was synthetized as an in vivo-compatible glucose analog by nucleophilic substitution of nitrobenzoselenadiazole with 2-deoxyglucosamine. […] The transport of SCOTfluor-89 in HeLa cells transfected with EGFP-tagged GLUT4, the main glucose transporter in mammalian cells was examined. […] Finally, compound SCOTfluor-89 was tested in vivo in zebrafish embryos to visualize regions of high glucose uptake. […] We confirmed that the staining was dependent on the active transport of SCOTfluor-89 through GLUT2 by examining glut2 morpholino-injected zebrafish, which have reduced levels of GLUT2.

[2] = Emission of SCOTfluor-101 in PBS/water and in liposomes; type: physicochemical
A549 cells = assay: Time-lapse confocal microscopy co-localization with ER and lysosome markers; type: cell-based, human; conditions: 50 μM
Method: C) Time-lapse confocal microscopy images of A549 cells treated with SCOTfluor-101 (50 μM, red), LysoTracker Blue (magenta) and ER Tracker Green (green) after 15 min (co-localization: white arrows) and 3 h (co-localization: yellow arrows). Total co-localization coefficients (R) were determined using ImageJ. Scale bar: 15 μm.
as §2
Confocal fluorescence microscopy was performed on a confocal Leica SP5 or a spinning disk microscope with excitation at 488 nm (ER Tracker, LysoTracker, EGFP & SCOTfluor-89), 561 nm (SCOTfluor-101) and 405 nm (Hoechst 33342). Prior to time-lapse imaging and imaging of HeLa cells, cells were incubated in Krebs-Ringer bicarbonate buffer (KRB) (129 mM NaCl, 4.7 mM KCl, 1.2 mM KH2PO4, 5 mM NaHCO3, 10 mM HEPES; 2.5 mM CaCl2, 1.2 mM MgCl2 and 0.2% BSA, pH 7.4) at 37° C. for 3 h. When appropriate, HeLa cells were washed and imaged in KRB with 1 μM Hoechst 33342 at 37° C., 5% CO2.
Then, the properties of SCOTfluors for imaging the trafficking of essential metabolites under physiological conditions. […] This property was exploited to visualize the recycling of ceramide SCOTfluor-101 in real time in human A549 cells using fluorescence confocal microscopy. […]

[3] = glut2 morpholino-injected zebrafish embryos

Row | Molecule | Φ [1] | ε [1] | λabs. [1] [nm] | λem. [1] [nm] | cytotoxicity (cell viability) (HeLa cells) | other results
1 | Nitrobenzodioxazole [NBD, reference compound] | 0.55 | 15,400 M^−1cm^−1 | 486 | 542 |  | 
2 | CCCNc1ccc([N+](=O)[O-])c2c1=NC1(CCCCC1)N=2 [SCOTfluor-81] | 0.11 | 28,300 M^−1cm^−1 | 546 | 650 | no significant cytotoxicity | 
3 | CCCNc1ccc([N+](=O)[O-])c2n[se]nc12 [SCOTfluor-76] | 0.20 | 16,300 M^−1cm^−1 | 510 | 606 | no significant cytotoxicity | 
4 | CCCNc1ccc([N+](=O)[O-])c2n[nH]nc12 [SCOTfluor-79] | <0.01 | 37,300 M^−1cm^−1 | 420 | 460 |  | 
5 | CCCNc1ccc([N+](=O)[O-])c2nsnc12 [SCOTfluor-78] | 0.54 | 14,600 M^−1cm^−1 | 476 | 548 |  | 
6 | O=[N+]([O-])c1ccc(N[C@H]2C(O)O[C@H](CO)[C@@H](O)[C@@H]2O)c2n[se]nc12 (stereo partly drawn) [SCOTfluor-89, (3R,4R,5S,6R)-6-(hydroxymethyl)-3-((7-nitrobenzo[c][1,2,5]selenadiazol-4-yl)amino)tetrahydro-2H-pyran-2,4,5-triol] |  |  |  |  | no significant cytotoxicity | Stokes shift [1]: 115 nm; emission [1]: around 605 nm; transport by GLUT4 (GLUT4): functional substrate of GLUT4; uptake under competition with excess glucose (GLUT4; 5 mM D-glucose): blocked; uptake after pre-treating with insulin (GLUT4; insulin 100 nM, 1 h): increased; in vivo fluorescence staining (GLUT2; [3]): much weaker fluorescence; in vivo fluorescence staining (GLUT2; wildtype zebrafish embryos): bright red fluorescence staining in regions of the developing brain
7 | CCCCCCCCCCCCC/C=C/[C@@H](O)[C@H](CO)NC(=O)CCCCCNc1ccc([N+](=O)[O-])c2c1=NC(C)(C)N=2 [SCOTfluor-101, N-((2S,3R,E)-1,3-dihydroxyoctadec-4-en-2-yl)-6-((2,2-dimethyl-7-nitro-2H-benzo[d]imidazol-4-yl)amino)hexanamide] |  |  |  |  | no significant cytotoxicity | emission [1]: > 660 nm; increase in emission on incubation with liposomes ([2]; phosphatidylcholine:cholesterol (7:1) liposomes vs PBS): over 15 fold; aggregation in water ([2]; water): minimal aggregation; co-localization (R) with ER Tracker Green (A549 cells; 15 min): 91%; co-localization (R) with LysoTracker Blue (A549 cells; 15 min): 26%; co-localization (R) with LysoTracker Blue (A549 cells; after 3 h): 75%
8 | CCCNc1ccc([N+](=O)[O-])c2c1=NC(C)(C)N=2 [SCOTfluor-80] | 0.09 | 27,300 M^−1cm^−1 | 564 | 650 |  | 
9 | CCN(CC)c1ccc([N+](=O)[O-])c2n[se]nc12 [SCOTfluor-54] |  |  |  |  |  | in vivo fluorescence staining (GLUT2; [3]): no tissue-specific staining; in vivo fluorescence staining (GLUT2; wildtype zebrafish embryos): no tissue-specific staining
